Patent US20130259882A1, “Conjugate of Folate and Antibody Preparation Method and Use Thereof” (priority 2010, published 2013)
Marks after values point to notes of the source that are not given here.

Experiments:
[1] = system: rats with rheumatoid arthritis; experiment: Complete Freund adjuvant induced rheumatoid arthritis model; type: in vivo, Wistar rat; details: Diclofenac sodium 10 mg/kg orally
Experimental: Rat IgG and complete Freund adjuvant are from Sigma. Diclofenac sodium enteric-coated tablets are from Beijing Novartis Pharma Ltd. RF detection kit is from Nanjing JianCheng Bioengineering Institute. • 2. Animal: 50 healthy and mature Wistar rat, both male and female, body weight 150˜200 g are provided by Wuhan University Laboratory Animal Center, China.
Diclofenac sodium positive control group were given 10 mg/kg Diclofenac sodium orally. Normal control group and model group were Intra-peritoneally injected equal amount of saline. The injections were performed once per day. After measurement of right foot volume on day 0, 0.1 ml complete Freund adjuvant was subcutaneously injected into right ankle. On day 21, the right foot volume was measured after the last injection. Rats were sacrificed with ether inhalation after taking blood samples. The blood samples were centrifuged to get serum for the detection of rheumatoid factor (RF).
Rheumatoid factors RF: 100 μl serum were used with RF detection kit.

[2] = system: folate receptor transfected MCF-7 cells; experiment: Breast cancer model: folate receptor transfected MCF-7 cells injected subcutaneously in mice, tumor volume and mean survival time; type: in vivo, nude mice
Experimental: Animal: 50 healthy and mature female nude mice, body weight 18-22 g are provided by Nanjing University Model Animal Center.
By weight, the mice were randomly divided into normal control group, model group, Epirubicin positive control group, FIG 5 mg/kg group and 40 mg/kg group, FGIG 5 mg/kg group and 40 mg/kg group. 7 days before the beginning of the experiment, the mice were maintained with feed without folic acid. From day 0, model group, epirubicin positive control group, FIG 5 mg/kg group or 40 mg/kg group and FGIG 5 mg/kg group or 40 mg/kg group were subcutaneously injected with folate receptor transfected MCF-7 cells (1×10^6) each. From day 5, FIG 5 mg/kg group and FIG 40 mg/kg group were intra-peritoneally injected with FIG 5 mg/kg and 40 mg/kg, respectively). FGIG 5 mg/kg group and FGIG 40 mg/kg group were intra-peritoneally injected with FGIG (5 mg/kg and 40 mg/kg, respectively). Epirubicin positive control group were intra-peritoneally injected with Epirubicin (200 mg/kg). Normal control group and model group were intra-peritoneally injected equal amount of saline. The injections were performed once time every four days. 15 days after injection, the mice were fasting. The next day after treatment, tumor volume was measured with vernier caliper and mean survival time was also calculated.
Volume: solid tumor volume was calculated using the following formula: V=0.5×L×W×H.

[3] = system: mice with inflammatory bowel disease; experiment: Acetic acid induced colitis (inflammatory bowel disease model); type: in vivo, Kunming mice; details: Mesalazine 600 mg/kg orally
Experimental: Mesalazine SR Granules are from Ethypharm (France). MPO detection kit is from Nanjing Jian-Cheng Bioengineering Institute. • 2. Animal: 50 healthy and mature male Kunming mice, body weight 18-22 g are provided by Nanjing University model animal center.
Mesalazine positive control group were given 600 mg/kg Mesalazine orally. Control group and model groups were i.p. injected with equal amount of saline. The injections were performed once per day.
Acetic acid stimulation was used to induce colitis. The mice were fasting on day 9, and on day 10, were anaesthetized with ether inhalation. Before injection, the intestinal was cleaned, with a polyethylene pipe containing 0.1 ml 6% acetic acid inserted about 1.5 cm into the anus.
Colon macroscopic damage index (CMDI): The entire colon was taken and scissored along the mesenteric. The adhesion, ulcer and congestion were scored by naked eye observation according to the Table 7. • 2. Myeloperoxidase (MPO): The tissues were weighted and homogenized (1:19, weight/volume) in Tris buffer. After homogenization and repeated freezing and thawing, the tissues were made to 5% homogenate. MPO detection was performed according to kit manufacturer's instructions and the protein level was detected using the Lowry method.

O=C(O)Cc1ccccc1Nc1c(Cl)cccc1Cl [Diclofenac sodium]
Joint injury score ([1]; day 21): 0.6 ± 0.22
RF ([1]; rheumatoid factor in serum): 15.2 ± 1.99 pg/mL
Toe volume difference ([1]; right foot, day 21 vs day 0): 0.090 ± 0.052 mL

COc1cccc2c1C(=O)c1c(O)c3c(c(O)c1C2=O)C[C@@](O)(C(=O)CO)C[C@@H]3O[C@H]1C[C@H](N)[C@@H](O)[C@H](C)O1 [Epirubicin]
Mean survival time (days) ([2]; Epirubicin 200 mg/kg i.p.): 9 ^▴▴ days
Volume of tumor (cm^3) ([2]; Epirubicin 200 mg/kg i.p. every four days, day 16): 6.18 ± 1.34 ^▴▴ cm^3

Nc1ccc(O)c(C(=O)O)c1 [Mesalazine]
Colon coefficient (g/100 g) [3]: 1.21 ± 0.13 g/100 g
MPO (U/mg · pro.) ([3]; colon tissue): 2.42 ± 0.11 U/mg · pro.
Inflammation rating level ([3]; score per Table 7): 1.9 ± 0.5
